Reference: patent US9271991B2, “Trimegestone (TMG) for treatment of preterm birth” (Dignity Health, priority 2010, dated 2016)
Where “and” joins values, the source holds several entries; their conditions need not be identical. Equal values may be shown once.

Columns and labels:
[1] = tested on: pregnant rats (term delivery); assay: Delay of term delivery in pregnant rats; assay type: in vivo, Sprague-Dawley rats; conditions: pregnant rats
Description: Timed-pregnant Sprague-Dawley rats (200-250 g) from Charles-River Laboratories (Wilmington, Mass., USA) were delivered to our animal care facilities on day 15 of gestation (day 1 being the day when a sperm plug was observed). The animals were housed separately, with free access to food and water and maintained on a constant 12-hour light-dark cycle. Control pregnant rats were spontaneously delivering on day 22 of gestation. The animals were randomly allocated into groups and sacrificed by carbon dioxide inhalation on day 5 postpartum or on day 25 of gestation in the groups with delayed delivery.
Pregnant rats (N=6 per group) were treated, when not otherwise mentioned, from day 20 of gestation until delivery. Single daily treatments were performed at 8 am and twice a day treatments at 8 am and 8 pm. Treatment began daily on day 20 of gestation with vehicles or: a) Topical P4 at various doses (4-30 mg/day, vehicle (v)=fish oil) or topical TMG ([…], v=fish oil; b) Subcutaneous (s.c.) P4 (0.5-4 mg/day, v=sesame oil) or s.c. TMG (0.5-2 mg/day, v=benzyl benzoate (BB) and castor oil (CO), 1:4). Delivery times were observed.
Subcutaneous treatments. All daily injections were by the subcutaneous route (s.c) in […] for the P4 treatments and benzyl benzoate (BB, 1 part): castor oil (CO, 4 parts) for the TMG group. P4 and TMG had dose ranges of 0.5 mg-4 mg per day and 0.5 mg-2 mg per day, respectively. Vehicles only are used in the control groups.
Topical treatments. Topical P4 and TMG (in fish oil and benzyl benzoate:castor oil (1:4), respectively) treatments were applied to the shaved back of the rat twice a day For topical treatments of P4 and TMG, dose range from 2 mg-30 mg per day and 0.005 to 0.5 mg per day, respectively.
Times of delivery of controls and treatment groups were determined as hours after 8 a.m. on day 22 of gestation. […] Delays in delivery less than 80 hours were calculated as less than 100% inhibition. The expulsion of a single pup was noted as delivery. Control groups spontaneously delivered on day 22 of gestation.
The Student's t test was used to compare the treatment groups with its specific control groups to determine the differences in delivery times. A 2-tailed probability value of P<0.05 was considered statistically significant.

[2] = tested on: pregnant guinea pigs (preterm delivery); assay: PGE2-induced preterm delivery in pregnant guinea pigs; assay type: in vivo, Hartley guinea pigs; conditions: TMG 4 mg/day s.c. days 44-47; PGE2 3 mg/day days 46, 47; sacrifice day 48
Description: Pregnant guinea pigs, another model of pregnancy are also utilized as they more closely resemble the endocrine control of human pregnancy with progesterone levels in pregnancy maintained by the placenta as opposed to the ovaries, which is observed in pregnant rats.
Pregnant Hartley guinea pigs arrived at our facilities at 31-35 days gestation and housed in pairs, with free access to food and water and also maintained on a constant 12-hour light-dark cycle. The animals were euthanized with a combination of xylazine (Gemini; Burns Veterinary Supply Inc, Rockville Center, N.Y.) and ketamine HCL (Ketaset; Fort Dodge Laboratories Inc, Fort Dodge, Iowa). All procedures were approved by the Animal Care and Use Committee of the St. Joseph's Hospital and Medical Center in Phoenix, Ariz.
Pregnant guinea pigs (N=4-6 per group) were allocated into 4 groups (Vehicle (v) only, TMG only, PGE2 only, PGE2+TMG). PGE2 administration (3 mg/day s.c, v=saline) began daily on day 46 to day 47 of gestation. TMG administration (4 mg/day s.c v=BB:CO) began daily on day 44 until day 47 of gestation. All guinea pigs were sacrificed on day 48.

[3] = s.c. single daily treatment from day 20 of gestation
[4] = topical twice a day from day 20 of gestation

SMILES: CC(=O)[C@H]1CC[C@H]2[C@@H]3CCC4=CC(=O)CC[C@]4(C)[C@H]3CC[C@]12C [P4, progesterone]
- dose for complete block of delivery (80 hour delay, 100 percent inhibition), subcutaneous [1, 3]: 2 mg
- dose for complete block of delivery, subcutaneous [1, 3]: 2 mg/day
- dose for complete block of delivery (80 hour delay, 100 percent inhibition), topical [1, 4]: 15 mg
- dose for complete block of delivery, topical [1, 4]: 15 mg/day

SMILES: CCCCC[C@H](O)/C=C/[C@H]1[C@H](O)CC(=O)[C@@H]1C/C=C\CCCC(=O)O [PGE2, prostaglandin E2]
- guinea pigs delivered (preterm) / treated, substance alone [2]: 2/3 and 4/6
